Measured values taken from US20240158639A1, “PROCESS FOR PREPARING INDOCYANINE GREEN” (ICROM Srl, priority 2021, published 2024).
Like-named read-outs stand apart in the source and are kept apart here. One block for each compound: values may come before it.

Tests used:
[1] = Stability of the HPLC sample solution; type: physicochemical
Method: Sonicate for 5 minutes verifying complete solubilization.

[2] = in vivo, iv; cited from earlier work
[3] = 10° C., 30 days, in nitrogen, aluminium + polythene, MeOH
[4] = 10° C., 30 days, no nitrogen, polythene, MeOH
[5] = 20-25° C., 30 days, in nitrogen, aluminium + polythene, MeOH
[6] = 20-25° C., 30 days, no nitrogen, polythene, MeOH
[7] = t0, no nitrogen, polythene, diluent MeOH, % area 254 nm

Compound: 1H-benz[e]indole, 2-[7-[1,3-dihydro-1,1-dimethyl-3-(4-sulfobutyl)-2H-benz[e]indol-2-ylidene]-1,3,5-heptatrienyl]-1,1-dimethyl-3-(4-sulfobutyl) hydroxide, inner salt, sodium salt [compound of formula (I)]
time for which the sample solution is stable ([1]; sample preparation method 1: 40 mg in 50 ml mixture phase 70:30 A:B): ≤ 30 min
time for which the sample solution is stable ([1]; sample preparation method 2: 40 mg in 50 ml methanol): ≤ 30 min
half-life of elimination by the body [2]: 3 to 4 min

% rt 3.5 (A) [3]: nq
% rt 4.0 [3]: 0.02%
% rt 8.9 [3]: 0.04%
INNmax (unknown maximum impurity) % [3]: 0.07%
Purity [3]: 99.77%
% rt 3.5 (A) [4]: nq
% rt 4.0 [4]: 0.04%
% rt 8.9 [4]: 0.04%
INNmax (unknown maximum impurity) % [4]: 0.06%
Purity [4]: 99.84%
% rt 3.5 (A) [5]: nq
% rt 4.0 [5]: 0.03%
% rt 8.9 [5]: 0.05%
INNmax (unknown maximum impurity) % [5]: 0.08%
Purity [5]: 99.71%
% rt 3.5 (A) [6]: nq
% rt 4.0 [6]: 0.076%
% rt 8.9 [6]: 0.05%
INNmax (unknown maximum impurity) % [6]: 0.076%
Purity [6]: 99.78%
% rt 3.5 (A) [7]: nq
% rt 4.0 [7]: 0.02%
% rt 8.9 [7]: 0.03%
INNmax (unknown maximum impurity) % [7]: 0.07%
Purity [7]: 99.73%
Compound: CC1(C)C(/C=C/C=C/C=C/C=C2\N(CCCCS(=O)(=O)[O-])c3ccc4ccccc4c3C2(C)C)=[N+](CCCCS(=O)(=O)[O-])c2ccc3ccccc3c21.[Na+] [067/046]
